{"source": "patent US7238377B2", "about": "“Use of an oil of the gourd family for inhibiting 5 alpha-reductase activity” (Laboratoires Expanscience, priority 2001, dated 2007)", "tested_on": "5α-reductase", "experiment": "In vitro evaluation of 5α-reductase activity: conversion of testosterone to 5α-dihydrotestosterone in normal human dermal fibroblast cultures", "assay_type": "cell-based", "conditions": "finasteride 30 ng/ml", "excerpt": "In vitro evaluation of the 5α-reductase activity of the balsam pear oil on the conversion of testosterone to 5α-dihydrotestosterone in normal human dermal fibroblast cultures\nIt is proposed to evaluate the effect of the solid oil (butter) extracted from seeds of balsam pear (Momordica charantia), extracted with solvent (hexane), on 5α-reductase activity. An in vitro model of normal human dermal fibroblast cultures was selected.\nThe balsam pear oil was provided by the Laboratoires Pharmascience and was stored at +4° C. until the time it was used. The effects of the test product were compared with those obtained in the presence of finasteride, used as reference product (finasteride, principle active agent of the tablets CHIBRO-PROSCAR: MERCK SHARP & DOHME CHIBRET).\nThe radioactive testosterone (labeled with tritium at positions 1, 2, 6 and 7, specific activity 95 Ci/mmol) was provided by AMERSHAM, the nonradiolabeled testosterone was provided by SIGMA.\nThe fibroblast culture medium (FCM) consisted of MEM/M199 (3:1, v/v) supplemented with penicillin (50 IU/ml), streptomycin ([…]), sodium bicarbonate (0.2%, w/v) and FCS (10%, v/v).\nThe test system consisted of normal human dermal fibroblasts cultured in monolayer. The fibroblasts were isolated from a residue of an abdominoplasty carried out on a person (subject No. i0006). The cells were used at the third passage; they were cultured, until the monolayers reached confluency, in the FCM medium at 37° C. in a humid atmosphere containing 5% CO2.\nThe fibroblast incubation medium (FIM) consisted of FCM supplemented with tritiated testosterone (1.6×10^−7 M, i.e. 6.32 μCi/ml) and nonradiolabeled testosterone (3.84×10^−6 M).\nThe finasteride was extracted from the tablets by grinding, stirring in DMSO, centrifugation, and then collection of the supernatant (theoretical concentration of this solution: 1 mg/ml of finasteride), which was tested at 30 ng/ml. […]\nThe migration solvent was a mixture of dichloromethane and ether (7:3, v/v). At the end of migration, the silica plates were read using a BERTHOLD radioactivity scanner.\nComparison of the Rf (relative retention factor) values determined for the standards with those obtained for the various radioactive metabolites made it possible to identify these metabolites.\nThe metabolization of the testosterone to 5α-dihydro-testosterone under the various experimental conditions was calculated; the results (areas of the 5α-dihydro-testosterone peaks counted by the BERTHOLD scanner) are expressed in pmol of 5α-DHT formed per […]. They have also been expressed as percentage of the 5α-reductase activity present in the “control cells” group. […]", "note": "Values joined by “and” are separate entries in the source; they are usually repeats but may differ in a detail not shown here. Identical values can stand only once. Marks after values point to notes of the source that are not given here."}
{"compound": "CC(C)(C)NC(=O)[C@H]1CC[C@H]2[C@@H]3CC[C@H]4NC(=O)C=C[C@]4(C)[C@H]3CC[C@]12C", "note": "[Finasteride, finasteride]", "values": [{"measurement": "pmol of 5α-DHT/μg of DNA (individual cultures)", "setting": "2 h preincubation, 24 h incubation, triplicate values, control cells 2.68, 1.91, 1.56", "result": "0.76 pmol of 5α-DHT/μg of DNA and 0.48 pmol of 5α-DHT/μg of DNA and 0.62 pmol of 5α-DHT/μg of DNA"}, {"measurement": "% control (5α-reductase activity)", "setting": "24 h incubation, control cells = 100", "result": 30, "unit": "%"}, {"measurement": "pmol of 5α-DHT/μg of DNA, Mean", "setting": "24 h incubation, control cells mean 2.05, p<0.05 vs control", "result": "0.62** pmol of 5α-DHT/μg of DNA"}, {"measurement": "inhibition of the 5α-reductase activity", "setting": "p<0.05", "result": 70, "unit": "%"}]}
